The target in this assay is T1, aggregated alpha-synuclein (Homo sapiens, UniProt P37840).
T1 construct: made in house; host or cells: E. coli
The assay is described as follows: Autoradiography using human brain tissue (dementia with Lewy bodies). The class given is binding. Here is the method: Autoradiography was performed on histological slices of frozen brain tissue using tritiated compound 1 and brain tissue derived from the cingulate gyrus of a patient with dementia with Lewy bodies.

Take `CN(C)c1ccc(-c2cc(-c3ccnc(Br)c3)[nH]n2)cc1` [Compound 1, 4-[3-(4-dimethylamino-phenyl)-1H-pyrazol-5-yl]-2-bromopyridine]: the Autoradiography binding pattern result ([3H]-compound 1 at 3 nM, cingulate gyrus, patient with dementia with Lewy bodies) was “preferential binding to the gray matter”. Also, for the setting “specific binding blocked by excess of non-tritiated compound 1”, the “Unspecific binding to brain tissue” value was “no to very low unspecific binding”.

For the origin of these results see US20230067910A1, “NOVEL COMPOUNDS FOR THE DIAGNOSIS, TREATMENT AND PREVENTION OF DISEASES ASSOCIATED WITH THE AGGREGATION OF ALPHA-SYNUCLEIN” (MODAG GMBH, priority 2019, published 2023).
